Measurements from the NIST ThermoML archive (doi:10.1016/j.jct.2005.10.006).
Numbers after ± are expanded uncertainties.

Test: xn = mol fraction of the nth substance listed
Conditions: Fluid (supercritical or subcritical phases), Spherical resonator

N#N [nitrogen] + C
Conditions	speed of sound [m/s]
250 K, 30044 kPa, x1 = 0.1	707.81 ± 1.1
250 K, 30196 kPa, x1 = 0.2	665.27 ± 1.1
275 K, 105.1 kPa, x1 = 0.2	405.31 ± 0.67
275 K, 249.6 kPa, x1 = 0.2	404.93 ± 0.67
275 K, 498.5 kPa, x1 = 0.1	416.53 ± 0.68
275 K, 498.5 kPa, x1 = 0.2	404.25 ± 0.67
275 K, 998 kPa, x1 = 0.2	402.93 ± 0.66
275 K, 998.1 kPa, x1 = 0.1	414.81 ± 0.68
275 K, 1999 kPa, x1 = 0.1	411.66 ± 0.68
275 K, 2001 kPa, x1 = 0.2	400.6 ± 0.66
275 K, 3010 kPa, x1 = 0.2	398.72 ± 0.66
275 K, 3012 kPa, x1 = 0.1	408.95 ± 0.67
275 K, 4014 kPa, x1 = 0.2	397.39 ± 0.65
275 K, 4024 kPa, x1 = 0.1	406.81 ± 0.67
275 K, 5030 kPa, x1 = 0.2	396.69 ± 0.65
275 K, 6045 kPa, x1 = 0.2	396.72 ± 0.65
275 K, 6053 kPa, x1 = 0.1	404.7 ± 0.67
275 K, 7052 kPa, x1 = 0.2	397.57 ± 0.65
275 K, 8005 kPa, x1 = 0.1	406.18 ± 0.67
275 K, 8072 kPa, x1 = 0.2	399.34 ± 0.66
275 K, 9089 kPa, x1 = 0.2	402.1 ± 0.66
275 K, 9957 kPa, x1 = 0.1	411.99 ± 0.68
275 K, 10115 kPa, x1 = 0.2	405.96 ± 0.67
275 K, 11147 kPa, x1 = 0.2	410.97 ± 0.68
275 K, 12035 kPa, x1 = 0.1	423.61 ± 0.7
275 K, 12036 kPa, x1 = 0.1	423.62 ± 0.7
275 K, 12160 kPa, x1 = 0.2	416.99 ± 0.68
275 K, 13171 kPa, x1 = 0.2	424.08 ± 0.7
275 K, 14013 kPa, x1 = 0.2	430.77 ± 0.71
275 K, 14111 kPa, x1 = 0.1	440.93 ± 0.72
275 K, 15003 kPa, x1 = 0.2	439.49 ± 0.72
275 K, 15988 kPa, x1 = 0.1	460.87 ± 0.75
275 K, 15990 kPa, x1 = 0.2	449 ± 0.74
275 K, 17009 kPa, x1 = 0.2	459.59 ± 0.75
275 K, 17997 kPa, x1 = 0.2	470.47 ± 0.77
275 K, 18033 kPa, x1 = 0.1	486.14 ± 0.79
275 K, 19084 kPa, x1 = 0.2	483.04 ± 0.79
275 K, 19680 kPa, x1 = 0.2	490.13 ± 0.8
275 K, 20228 kPa, x1 = 0.1	515.84 ± 0.84
275 K, 24821 kPa, x1 = 0.1	581.11 ± 0.95
275 K, 29257 kPa, x1 = 0.1	642.82 ± 1
275 K, 29972 kPa, x1 = 0.2	619.3 ± 1
300 K, 199.5 kPa, x1 = 0.1	434.92 ± 0.71
300 K, 248.5 kPa, x1 = 0.2	421.88 ± 0.69
300 K, 480.1 kPa, x1 = 0.5422	386.4 ± 0.64
300 K, 498 kPa, x1 = 0.1	434.24 ± 0.71
300 K, 498.6 kPa, x1 = 0.2	421.47 ± 0.69
300 K, 707.5 kPa, x1 = 0.5422	386.45 ± 0.64
300 K, 996.8 kPa, x1 = 0.1	433.15 ± 0.71
300 K, 1191 kPa, x1 = 0.5422	386.59 ± 0.64
300 K, 1998 kPa, x1 = 0.1	431.25 ± 0.71
300 K, 1999 kPa, x1 = 0.2	419.47 ± 0.69
300 K, 2344 kPa, x1 = 0.5422	387.23 ± 0.64
300 K, 3003 kPa, x1 = 0.1	429.75 ± 0.7
300 K, 4015 kPa, x1 = 0.2	418.25 ± 0.69
300 K, 4016 kPa, x1 = 0.1	428.73 ± 0.7
300 K, 4632 kPa, x1 = 0.5422	389.87 ± 0.64
300 K, 5019 kPa, x1 = 0.1	428.26 ± 0.7
300 K, 6030 kPa, x1 = 0.1	428.38 ± 0.7
300 K, 6037 kPa, x1 = 0.2	419.02 ± 0.69
300 K, 6838 kPa, x1 = 0.5422	394.27 ± 0.65
300 K, 7046 kPa, x1 = 0.1	429.17 ± 0.7
300 K, 8068 kPa, x1 = 0.2	422.18 ± 0.69
300 K, 8086 kPa, x1 = 0.1	430.75 ± 0.71
300 K, 8994 kPa, x1 = 0.5422	400.43 ± 0.66
300 K, 10104 kPa, x1 = 0.2	428.03 ± 0.7
300 K, 10134 kPa, x1 = 0.1	436.25 ± 0.71
300 K, 11262 kPa, x1 = 0.5422	408.61 ± 0.67
300 K, 11983 kPa, x1 = 0.2	435.96 ± 0.71
300 K, 12193 kPa, x1 = 0.1	445.26 ± 0.73
300 K, 14023 kPa, x1 = 0.2	447.31 ± 0.73
300 K, 14237 kPa, x1 = 0.1	457.66 ± 0.75
300 K, 16022 kPa, x1 = 0.2	461.03 ± 0.75
300 K, 16322 kPa, x1 = 0.1	473.66 ± 0.77
